Measured values from ChEMBL document CHEMBL3817731, “Synthesis and investigation of novel benzimidazole derivatives as antifungal agents” (Bioorg Med Chem, 2016).
Converted amounts (≈) assume the structure as drawn.

tested on: Candida albicans; experiment: Antifungal activity against Candida albicans ATCC MYA-2876 after 48 hrs by CLSI M27-A3 method; type: functional; details: ATCC MYA-2876, 48 h

CCCCCN1CCN(c2ccc3nc(-c4ccc5nc(-c6ccc(OCC)cc6)[nH]c5c4)[nH]c3c2)CC1 and CCCCCN1CCN(c2ccc3nc(-c4ccc5nc(-c6ccc(OC)cc6)[nH]c5c4)[nH]c3c2)CC1 cannot be ordered by MIC: > 31.2 µg/mL for the first, > 31.2 µg/mL for the second.

First: OC(Cn1cncn1)(Cn1cncn1)c1ccc(F)cc1F [FLUCONAZOLE]
Second: CN1CCN(c2ccc3nc(-c4ccc5nc(-c6ccc(OCCO)cc6)[nH]c5c4)[nH]c3c2)CC1
The MIC of the first is 2-fold lower: 15.6 µg/mL (≈ 50.9 µM) for the first, 31.2 µg/mL (≈ 66.6 µM) for the second.

tested on: Candida albicans; experiment: Antifungal activity against Candida albicans ATCC MYA-1237 after 48 hrs by CLSI M27-A3 method; type: functional; details: ATCC MYA-1237, 48 h

CCCCCN1CCN(c2ccc3nc(-c4ccc5nc(-c6ccc(OCC)cc6)[nH]c5c4)[nH]c3c2)CC1 and CCCCCN1CCN(c2ccc3nc(-c4ccc5nc(-c6ccc(OC)cc6)[nH]c5c4)[nH]c3c2)CC1 cannot be ordered by MIC: > 31.2 µg/mL for the first, > 31.2 µg/mL for the second.

For CN1CCN(c2ccc3nc(-c4ccc5nc(-c6ccc(OCCO)cc6)[nH]c5c4)[nH]c3c2)CC1, the MIC was > 31.2 µg/mL.

tested on: Candida parapsilosis; experiment: Antifungal activity against Candida parapsilosis ATCC 22019 after 48 hrs by CLSI M27-A3 method; type: functional; details: Lodderomyces parapsilosis, ATCC 22019, 48 h

First: CCCCCN1CCN(c2ccc3nc(-c4ccc5nc(-c6ccc(OCC)cc6)[nH]c5c4)[nH]c3c2)CC1
Second: CCCCCN1CCN(c2ccc3nc(-c4ccc5nc(-c6ccc(OC)cc6)[nH]c5c4)[nH]c3c2)CC1
The MIC of the first is higher: > 31.2 µg/mL for the first, 15.6 µg/mL (≈ 31.5 µM) for the second.

Compared with OC(Cn1cncn1)(Cn1cncn1)c1ccc(F)cc1F [FLUCONAZOLE], CN1CCN(c2ccc3nc(-c4ccc5nc(-c6ccc(OCCO)cc6)[nH]c5c4)[nH]c3c2)CC1 is 8-fold higher in MIC: 1.95 µg/mL (≈ 6.37 µM) for the first, 15.6 µg/mL (≈ 33.3 µM) for the second.

tested on: Candida albicans; experiment: Antifungal activity against Candida albicans ATCC MYA-90819 after 48 hrs by CLSI M27-A3 method; type: functional; details: ATCC MYA-90819, 48 h

CCCCCN1CCN(c2ccc3nc(-c4ccc5nc(-c6ccc(OCC)cc6)[nH]c5c4)[nH]c3c2)CC1 and CCCCCN1CCN(c2ccc3nc(-c4ccc5nc(-c6ccc(OC)cc6)[nH]c5c4)[nH]c3c2)CC1 cannot be ordered by MIC: > 31.2 µg/mL for the first, > 31.2 µg/mL for the second.

OC(Cn1cncn1)(Cn1cncn1)c1ccc(F)cc1F [FLUCONAZOLE] and CN1CCN(c2ccc3nc(-c4ccc5nc(-c6ccc(OCCO)cc6)[nH]c5c4)[nH]c3c2)CC1 cannot be ordered by MIC: > 125 µg/mL for the first, > 31.2 µg/mL for the second.

tested on: Aspergillus terreus; experiment: Antifungal activity against Aspergillus terreus ATCC MYA3633 after 48 hrs by CLSI M38-A2 method; type: functional; details: ATCC MYA3633, 48 h

CCCCCN1CCN(c2ccc3nc(-c4ccc5nc(-c6ccc(OCC)cc6)[nH]c5c4)[nH]c3c2)CC1 and CCCCCN1CCN(c2ccc3nc(-c4ccc5nc(-c6ccc(OC)cc6)[nH]c5c4)[nH]c3c2)CC1 cannot be ordered by MIC: > 31.2 µg/mL for the first, > 31.2 µg/mL for the second.

CN1CCN(c2ccc3nc(-c4ccc5nc(-c6ccc(OCCO)cc6)[nH]c5c4)[nH]c3c2)CC1 gave an MIC of 15.6 µg/mL (≈ 33.3 µM).

tested on: Aspergillus nidulans; experiment: Antifungal activity against Aspergillus nidulans ATCC 38163 after 48 hrs by CLSI M38-A2 method; type: functional; details: ATCC 38163, 48 h

CCCCCN1CCN(c2ccc3nc(-c4ccc5nc(-c6ccc(OCC)cc6)[nH]c5c4)[nH]c3c2)CC1 and CCCCCN1CCN(c2ccc3nc(-c4ccc5nc(-c6ccc(OC)cc6)[nH]c5c4)[nH]c3c2)CC1 cannot be ordered by MIC: > 31.2 µg/mL for the first, > 31.2 µg/mL for the second.

Compound CN1CCN(c2ccc3nc(-c4ccc5nc(-c6ccc(OCCO)cc6)[nH]c5c4)[nH]c3c2)CC1 has an MIC of 15.6 µg/mL (≈ 33.3 µM).

tested on: Candida albicans; experiment: Antifungal activity against Candida albicans ATCC 10231 after 48 hrs by CLSI M27-A3 method; type: functional; details: ATCC 10231, 48 h

CCCCCN1CCN(c2ccc3nc(-c4ccc5nc(-c6ccc(OCC)cc6)[nH]c5c4)[nH]c3c2)CC1 and CCCCCN1CCN(c2ccc3nc(-c4ccc5nc(-c6ccc(OC)cc6)[nH]c5c4)[nH]c3c2)CC1 cannot be ordered by MIC: > 31.2 µg/mL for the first, > 31.2 µg/mL for the second.

With CN1CCN(c2ccc3nc(-c4ccc5nc(-c6ccc(OCCO)cc6)[nH]c5c4)[nH]c3c2)CC1 the MIC was > 31.2 µg/mL.

tested on: Candida albicans; experiment: Antifungal activity against Candida albicans ATCC 64124 after 48 hrs by CLSI M27-A3 method; type: functional; details: ATCC 64124, 48 h

CCCCCN1CCN(c2ccc3nc(-c4ccc5nc(-c6ccc(OCC)cc6)[nH]c5c4)[nH]c3c2)CC1 and CCCCCN1CCN(c2ccc3nc(-c4ccc5nc(-c6ccc(OC)cc6)[nH]c5c4)[nH]c3c2)CC1 cannot be ordered by MIC: > 31.2 µg/mL for the first, > 31.2 µg/mL for the second.

OC(Cn1cncn1)(Cn1cncn1)c1ccc(F)cc1F [FLUCONAZOLE] and CN1CCN(c2ccc3nc(-c4ccc5nc(-c6ccc(OCCO)cc6)[nH]c5c4)[nH]c3c2)CC1 cannot be ordered by MIC: > 125 µg/mL for the first, > 31.2 µg/mL for the second.

tested on: Pichia kudriavzevii; experiment: Antifungal activity against Candida krusei ATCC 6258 after 48 hrs by CLSI M27-A3 method; type: functional; details: ATCC 6258, 48 h

CCCCCN1CCN(c2ccc3nc(-c4ccc5nc(-c6ccc(OCC)cc6)[nH]c5c4)[nH]c3c2)CC1 and CCCCCN1CCN(c2ccc3nc(-c4ccc5nc(-c6ccc(OC)cc6)[nH]c5c4)[nH]c3c2)CC1 cannot be ordered by MIC: > 31.2 µg/mL for the first, > 31.2 µg/mL for the second.

Work on CN1CCN(c2ccc3nc(-c4ccc5nc(-c6ccc(OCCO)cc6)[nH]c5c4)[nH]c3c2)CC1 yielded an MIC of 7.8 µg/mL (≈ 16.6 µM).

tested on: Nakaseomyces glabratus; experiment: Antifungal activity against Candida glabrata ATCC 2001 after 48 hrs by CLSI M27-A3 method; type: functional; details: CBS 138, 48 h

CCCCCN1CCN(c2ccc3nc(-c4ccc5nc(-c6ccc(OCC)cc6)[nH]c5c4)[nH]c3c2)CC1 and CCCCCN1CCN(c2ccc3nc(-c4ccc5nc(-c6ccc(OC)cc6)[nH]c5c4)[nH]c3c2)CC1 cannot be ordered by MIC: > 31.2 µg/mL for the first, > 31.2 µg/mL for the second.

First: OC(Cn1cncn1)(Cn1cncn1)c1ccc(F)cc1F [FLUCONAZOLE]
Second: CN1CCN(c2ccc3nc(-c4ccc5nc(-c6ccc(OCCO)cc6)[nH]c5c4)[nH]c3c2)CC1
The MIC of the first is higher: > 31.2 µg/mL for the first, 31.2 µg/mL (≈ 66.6 µM) for the second.

tested on: Aspergillus flavus; experiment: Antifungal activity against Aspergillus flavus ATCC MYA-3631 after 48 hrs by CLSI M38-A2 method; type: functional; details: ATCC MYA-3631, 48 h

CCCCCN1CCN(c2ccc3nc(-c4ccc5nc(-c6ccc(OCC)cc6)[nH]c5c4)[nH]c3c2)CC1 and CCCCCN1CCN(c2ccc3nc(-c4ccc5nc(-c6ccc(OC)cc6)[nH]c5c4)[nH]c3c2)CC1 cannot be ordered by MIC: > 31.2 µg/mL for the first, > 31.2 µg/mL for the second.

Compound CN1CCN(c2ccc3nc(-c4ccc5nc(-c6ccc(OCCO)cc6)[nH]c5c4)[nH]c3c2)CC1 has an MIC of 31.2 µg/mL (≈ 66.6 µM).

tested on: Candida albicans; experiment: Antifungal activity against Candida albicans ATCC MYA-2310 after 48 hrs by CLSI M27-A3 method; type: functional; details: ATCC MYA-2310, 48 h

CCCCCN1CCN(c2ccc3nc(-c4ccc5nc(-c6ccc(OCC)cc6)[nH]c5c4)[nH]c3c2)CC1 and CCCCCN1CCN(c2ccc3nc(-c4ccc5nc(-c6ccc(OC)cc6)[nH]c5c4)[nH]c3c2)CC1 cannot be ordered by MIC: > 31.2 µg/mL for the first, > 31.2 µg/mL for the second.

Compared with OC(Cn1cncn1)(Cn1cncn1)c1ccc(F)cc1F [FLUCONAZOLE], CN1CCN(c2ccc3nc(-c4ccc5nc(-c6ccc(OCCO)cc6)[nH]c5c4)[nH]c3c2)CC1 is lower in MIC: > 125 µg/mL for the first, 31.2 µg/mL (≈ 66.6 µM) for the second.

tested on: Candida albicans; experiment: Antifungal activity against Candida albicans ATCC MYA-1003 after 48 hrs by CLSI M27-A3 method; type: functional; details: ATCC MYA-1003, 48 h

CCCCCN1CCN(c2ccc3nc(-c4ccc5nc(-c6ccc(OCC)cc6)[nH]c5c4)[nH]c3c2)CC1 and CCCCCN1CCN(c2ccc3nc(-c4ccc5nc(-c6ccc(OC)cc6)[nH]c5c4)[nH]c3c2)CC1 cannot be ordered by MIC: > 31.2 µg/mL for the first, > 31.2 µg/mL for the second.

Work on CN1CCN(c2ccc3nc(-c4ccc5nc(-c6ccc(OCCO)cc6)[nH]c5c4)[nH]c3c2)CC1 yielded an MIC of 31.2 µg/mL (≈ 66.6 µM).
